Results as given in US5580542A, “Method of testing for nephritis” (Kureha Kagaku Kogyo K.K., priority 1993, dated 1996).
Several values for one entry are separate records, joined by “and”; a condition that tells them apart may be missing. Equal entries are not always repeated. Values belong to the molecule of their own block, whether it stands above or below them.

Tests used:
[1] = Test 4: concentrations of PAH and AcPAH in blood after Na-PAH; assay type: in vivo, Sprague-Dawley male rats; conditions: 40 mg Na-PAH single shot jugular vein; serum at 30, 60, 90, 120 minutes
Method: In the test, the rate of secretion of an acetyltransferase activity measuring agent according to this invention into urine was tested.
An aqueous solution of 40 mg of sodium p-aminohippurate (Na-PAH) in 200 μl of distilled water was administered as a single shot to the jugular vein of each rat under anesthesia with ethyl ether. Upon elapsed time of 30 minutes, 60 minutes, 90 minutes and 120 minutes, the concentrations of PAH and AcPAH in blood were measured by high-performance liquid chromatography. Serum was used in an amount of 50 μl each time. The pretreatment method and analysis conditions were the same as in Test 2.

[2] = Test 2: urinal AcPAH/PAH ratio after Na-PAH in renal arterial ligature rats; assay type: in vivo, Sprague-Dawley male rats; conditions: 40 mg Na-PAH single shot jugular vein, 24 h urine; for urinal AcPAH/PAH ratio, individual rats: day 37 after operation
Method: In this test, an investigation was conducted about the relationship, if any, between the degree of ligature of the renal artery, which serves as an index for the degree of progress of the pathema of a kidney disease, and the concentration ratio of p-acetyl-aminohippuric acid (AcPAH) to p-aminohippuric acid (PAH) in urine.
Depending on whether the renal arterial carina ligating method was applied and if so, how tight the ligating method as applied, the rats were divided into three groups, each consisting of three of the rats, that is, a sham-operation group (i.e., control), a 1/2 renal arterial ligature group (only one kidney was functioning) and a 5/6 renal arterial ligature group. On the 37th day after the operation, an aqueous solution of 40 mg of sodium p-aminohippurate (Na-PAH) in 200 μl of distilled water was administered as a single shot to the jugular vein of each rat under anesthesia with ethyl ether. The rat was then immediately placed in metabolism test cage, and urine was collected over 24 hours. The concentrations of AcPAH and PAH in urine were analyzed by high-performanceliquid chromatography in a manner to be described subsequently herein, whereby the ratio of AcPAH to PAH (AcPAH/PAH) was determined.
Namely, 150 μl of methanol, which contained 1 μg of vanillic acid as an internal standard substance, were added to 50 μl of fivefold dilute urine. After the resulting mixture was stirred and centrifuged, the supernatant was collected and was subjected to filtration by centrifugation. By high-performance liquid chromatography, 10 μl of the supernant so obtained were quantitatively analyzed under the following analysis conditions:
Column: "Unisil Pack 250B" (trade name, product of GL Science Inc.)
Mobile phase: water/acetic acid/acetonitrile=93.5/0.5/6 (pH 3, approximately)
Column oven temperature: 40° C.

[3] = Test 3: time-dependent stability of urinal AcPAH/PAH ratio after Na-PAH; assay type: in vivo, Sprague-Dawley male rats; conditions: 40 mg Na-PAH single shot jugular vein, 24 h urine, test repeated 7 times on different days
Method: In this test, an investigation was conducted about the time-dependent stability of test results which were obtained using an acetyltransferase activity measuring agent according to the present invention.
An aqueous solution of 40 mg of sodium p-aminohippurate (Na-PAH) in 200 μl of distilled water was administered as a single shot to the jugular vein of each rat under anesthesia with ethyl ether. The rat was then immediately placed in metabolism test cage, and urine was collected over 24 hours. The concentrations of AcPAH and PAH in urine were analyzed as in Test 2, whereby the AcPAH/PAH ratio was determined. The above test was repeated 7 times on different days so that its average value, standard deviation (S.D.) and coefficient of variations (C.V.) were determined.

[4] = system: Clone 9; test: Test 1: acetyltransferase activity, conversion of p-aminobenzoic acid to p-acetamidobenzoic acid in culture (GC-MS); assay type: cell-based, rat; conditions: Clone 9 (liver); culture medium after 2 to 3 days
Method: (§1) In this test, the activity of acetyltransferase was evaluated by an in-vitro experiment with respect to p-aminobenzoic acid.
(§2) The left and right kidneys of 7 weeks-old Sprague-Dawley female rats were excised. After the renal cortices were shredded, mesangial cells were prepared by the Sieving's method. For the sake of comparison, "A7r5" (trade name, derived from fetal thoracic aortic smooth muscle), "Clone 9" (trade name. derived from liver), "H9 c2 (2-1)" (trade name, derived from cardiorhabdium), "IEC-18" (trade name, derived from the small intestine) and "NRK-52E" (trade name, derived from epithelial cells of renal tubule), all products of Flow Corp., U.S.A., were used as cells derived from rats.
(§3) Using as a culture medium "RPMI-1640" (trade name; product of Flow Corp.; U.S.A.) added with fetal bovine serum (product of GIBCO Corp.) whose concentration was finally 10% in the medium, those cells were cultured in a 5% CO2 incubator. Since the p-amionbenzoic acid contained in RPMI-1640 was converted to p-acetamidobenzoic acid by the above culture, detection was conducted with respect to the p-acetamidobenzoic acid so converted.
(§4) Namely, 2 ml of each culture medium after the lapse of 2 to 3 days since its culture were subjected to centrifugal ultrafiltration to eliminate proteins. One ml of the filtrate was added with 30 μl of 1N hydrochloric acid to adjust the pH to pH 1. Added next were 10 μg of p-pentylbenzoic acid, as an internal standard, and 0.5 g NaCl. The resulting mixture was shaken three times together with 3 ml portions of ethyl acetate to conduct liquid/liquid extraction of the organic acid component. After the extract was dried under a nitrogen gas stream, 40 μl of N,O-bis(trimethylsilyl)trifluoroacetamide and 10 μl of trimethylchlorosilane were added. The resulting mixture was stirred at 60° C. for 1 hour so that the organic acid component was trimethylsilylated. The trimethylsilylated organic acid component was then detected by gas chromatography mass spectrometry. The activity of acetyltransferase was evaluated by the relative height of a peak corresponding to p-acetamidobenzoic acid. The following evaluation standard was employed:-: smaller than 50,000,+: 50,000 or greater but smaller than 500,000, ++: 500,000 or greater, all in terms of abundance.

[5] = system: Mesangial cells; test: as above; assay type: cell-based, rat
Method: as §1, §2, §3, §4

[6] = system: IEC-18; test: as above; assay type: cell-based, rat; conditions: IEC-18 (small intestine); culture medium after 2 to 3 days
Method: as §1, §2, §3, §4

[7] = system: H9c2(2-1); test: as above; assay type: cell-based, rat; conditions: H9c2(2-1) (cardiorhabdium); culture medium after 2 to 3 days
Method: as §1, §2, §3, §4

[8] = system: A7r5; test: as above; assay type: cell-based, rat; conditions: A7r5 (fetal thoracic aortic smooth muscle); culture medium after 2 to 3 days
Method: as §1, §2, §3, §4

[9] = system: NRK-52E; test: as above; assay type: cell-based, rat; conditions: NRK-52E (epithelial cells of renal tubule); culture medium after 2 to 3 days
Method: as §1, §2, §3, §4

[10] = 1/2 Renal arterial ligature group (n = 3)
[11] = 5/6 Renal arterial ligature group (n = 3)

Structure (SMILES): CC(=O)Nc1ccc(C(=O)NCC(=O)O)cc1 [AcPAH, p-acetyl-aminohippuric acid]
concentration of metabolite AcPAH in blood versus time (FIG. 2) [1]: becomes low in concentration in 120 minutes after the administration

urinal AcPAH/PAH ratio, Ave. [2, 10]: 0.146
urinal AcPAH/PAH ratio, individual rats [2, 10]: 0.144 and 0.153 and 0.141
urinal AcPAH/PAH ratio, Ave. [2, 11]: 0.250
urinal AcPAH/PAH ratio, individual rats [2, 11]: 0.236 and 0.242 and 0.272
urinal AcPAH/PAH ratio, Ave. ([2]; Sham-operation group (n = 3)): 0.125
urinal AcPAH/PAH ratio, individual rats ([2]; Sham-operation group (n = 3)): 0.132 and 0.121 and 0.123
Urinal AcPAH/PAH, Ave. ([3]; Rat #1): 0.125
Urinal AcPAH/PAH, Ave. ([3]; Rat #2): 0.100
Urinal AcPAH/PAH, Ave. ([3]; Rat #3): 0.131
Structure (SMILES): Nc1ccc(C(=O)NCC(=O)[O-])cc1.[Na+]

Structure (SMILES): Nc1ccc(C(=O)O)cc1 [p-aminobenzoic acid]
Evaluation results: activity of acetyltransferase by relative height of peak corresponding to p-acetamidobenzoic acid [4]: - (smaller than 50,000)
N-acetyltransferase activity to p-aminobenzoic acid (in words) ([5]; Mesangial cells): confirmed to have N-acetyltransferase activity
Evaluation results: activity of acetyltransferase by relative height of peak corresponding to p-acetamidobenzoic acid ([5]; Mesangial cells from rat renal cortex, culture medium after 2 to 3 days): ++ (500,000 or greater)
Evaluation results: activity of acetyltransferase by relative height of peak corresponding to p-acetamidobenzoic acid [6]: - (smaller than 50,000)
Evaluation results: activity of acetyltransferase by relative height of peak corresponding to p-acetamidobenzoic acid [7]: - (smaller than 50,000)
Evaluation results: activity of acetyltransferase by relative height of peak corresponding to p-acetamidobenzoic acid [8]: - (smaller than 50,000)
Evaluation results: activity of acetyltransferase by relative height of peak corresponding to p-acetamidobenzoic acid [9]: - (smaller than 50,000)

Structure (SMILES): Nc1ccc(C(=O)NCC(=O)O)cc1 [PAH, p-aminohippuric acid]
elimination of PAH from blood (concentration in blood versus time, FIG. 1) [1]: substantially eliminated from blood in 120 minutes after the administration
